In PubChem BioAssay (NCI):
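Grown in 96-well plates, cells were treated for 48 hours with each compound at five concentrations. Insufficient inhibition: endpoint recorded as highest concentration tested. Abbreviation: GI50, concentration required for 50% inhibition of growth. TGI is the concentration that stops growth completely.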

Key:
Assay in all cases: NCI anticancer screen, dose series, 48 h
[1] = tested on: HL-60(TB) leukemia
[2] = tested on: A549 NSCLC
[3] = tested on: A498 renal
[4] = tested on: MALME-3M melanoma
[5] = tested on: NCI-H522 lung
[6] = tested on: MDA-MB-435
[7] = tested on: NCI/ADR-RES ovarian
[8] = tested on: IGROV1 ovarian
[9] = tested on: HS 578T breast
[10] = tested on: HT29 colon
[11] = tested on: SK-MEL-5 melanoma
[12] = tested on: SR leukemia
[13] = tested on: U251 CNS
[14] = tested on: NCI-H226 lung
[15] = tested on: T-47D breast
[16] = tested on: BT-549 breast
[17] = tested on: SNB-75 CNS
[18] = tested on: SF-539 CNS
[19] = tested on: OVCAR-4 ovarian
[20] = tested on: K-562 leukemia
[21] = tested on: EKVX NSCLC
[22] = tested on: MDA-MB-231 breast
[23] = tested on: HCC-2998 colon
[24] = tested on: SK-MEL-28 melanoma
[25] = tested on: CCRF-CEM leukemia
[26] = tested on: SF-295 CNS
[27] = tested on: SK-MEL-2 melanoma
[28] = tested on: HCT-15 colon
[29] = tested on: NCI-H23 lung
[30] = tested on: UO-31 renal
[31] = tested on: HOP-62 NSCLC
[32] = tested on: LOX IMVI melanoma
[33] = tested on: HOP-92 NSCLC
[34] = tested on: RPMI-8226 leukemia
[35] = tested on: 786-0 renal
[36] = tested on: ACHN renal
[37] = tested on: NCI-H460 lung
[38] = tested on: M14 melanoma
[39] = tested on: SK-OV-3 ovarian
[40] = tested on: SF-268 CNS
[41] = tested on: MCF7 breast
[42] = tested on: COLO 205 colon
[43] = tested on: KM12 colon
[44] = tested on: CAKI-1 renal
[45] = tested on: UACC-62 melanoma
[46] = tested on: RXF 393 renal
[47] = tested on: SW-620 colon
[48] = tested on: OVCAR-5 ovarian
[49] = tested on: SNB-19 CNS
[50] = tested on: DU-145 prostate
[51] = tested on: UACC-257 melanoma
[52] = tested on: PC-3 prostate
[53] = tested on: SN12C renal
[54] = tested on: HCT-116 colon
[55] = tested on: TK-10 renal

O=C(CNc1nc(-c2cccc([N+](=O)[O-])c2)cs1)Nc1cccc([N+](=O)[O-])c1
GI50 [1]: 2080 nM
TGI [1]: 7.73 µM
GI50 [2]: 2630 nM
TGI [2]: 9.09 µM
GI50 [3]: 1300 nM
TGI [3]: 2580 nM
GI50 [4]: 1580 nM
TGI [4]: 3.18 µM
GI50 [5]: 1330 nM
TGI [5]: 2900 nM
GI50 [6]: 1650 nM
TGI [6]: 3.07 µM
GI50 [7]: 1470 nM
TGI [7]: 4.59 µM
GI50 [8]: 333 nM
TGI [8]: 1330 nM
GI50 [9]: 1600 nM
TGI [9]: 5.28 µM
GI50 [10]: 744 nM
TGI [10]: 2290 nM
GI50 [11]: 1790 nM
TGI [11]: 3.24 µM
GI50 [12]: 419 nM
TGI [12]: > 100 µM
GI50 [13]: 1710 nM
TGI [13]: 5 µM
GI50 [14]: 1040 nM
TGI [14]: 3.32 µM
GI50 [15]: 1910 nM
TGI [15]: 4.87 µM
GI50 [16]: 627 nM
TGI [16]: 2210 nM
GI50 [17]: 1070 nM
TGI [17]: 2350 nM
GI50 [18]: 1530 nM
TGI [18]: 3.49 µM
GI50 [19]: 2090 nM
TGI [19]: 5.07 µM
GI50 [20]: 1030 nM
TGI [20]: > 100 µM
GI50 [21]: 2060 nM
TGI [21]: 4.74 µM
GI50 [22]: 2110 nM
TGI [22]: 4.56 µM
GI50 [23]: 1780 nM
TGI [23]: 3.48 µM
GI50 [24]: 1490 nM
TGI [24]: 3.08 µM
GI50 [25]: 446 nM
TGI [25]: > 100 µM
GI50 [26]: 2120 nM
TGI [26]: 5.47 µM
GI50 [27]: 1790 nM
TGI [27]: 3.31 µM
GI50 [28]: 582 nM
TGI [28]: 2810 nM
GI50 [29]: 404 nM
TGI [29]: 1760 nM
GI50 [30]: 1290 nM
TGI [30]: 2670 nM
GI50 [31]: 1980 nM
TGI [31]: 4.13 µM
GI50 [32]: 577 nM
TGI [32]: 2040 nM
GI50 [33]: 1700 nM
TGI [33]: 4 µM
GI50 [34]: 1470 nM
TGI [34]: 4.32 µM
GI50 [35]: 1940 nM
TGI [35]: 4.88 µM
GI50 [36]: 1300 nM
TGI [36]: 2630 nM
GI50 [37]: 1040 nM
TGI [37]: 2760 nM
GI50 [38]: 1480 nM
TGI [38]: 3.06 µM
GI50 [39]: 871 nM
TGI [39]: 2410 nM
GI50 [40]: 1690 nM
TGI [40]: 3.35 µM
GI50 [41]: 942 nM
TGI [41]: 4.61 µM
GI50 [42]: 1280 nM
TGI [42]: 2850 nM
GI50 [43]: 1360 nM
TGI [43]: 3.09 µM
GI50 [44]: 715 nM
TGI [44]: 2600 nM
GI50 [45]: 662 nM
TGI [45]: 2030 nM
GI50 [46]: 522 nM
TGI [46]: 2070 nM
GI50 [47]: 372 nM
TGI [47]: 2010 nM
GI50 [48]: 542 nM
TGI [48]: 2370 nM
GI50 [49]: 2220 nM
TGI [49]: 6.44 µM
GI50 [50]: 2020 nM
TGI [50]: 4.79 µM
GI50 [51]: 1950 nM
TGI [51]: 5.08 µM
GI50 [52]: 593 nM
TGI [52]: 2660 nM
GI50 [53]: 1740 nM
TGI [53]: 5.03 µM
GI50 [54]: 1240 nM
TGI [54]: 3.18 µM
GI50 [55]: 1530 nM
TGI [55]: 5.82 µM
